In ChEMBL document CHEMBL3763150, “New antibacterial isocoumarin glycosides from a wetland soil derived fungal strain Metarhizium anisopliae” (2016):
≈ marks a conversion by molar mass, not a printed value. Calls of active or inactive are those of the source. The calls are words filed in the database; no cut-off is given here.

How the values were obtained:
Pseudomonas aeruginosa [1] = assay: Antibacterial activity against clinical isolates of Pseudomonas aeruginosa PAOA incubated for 20 hrs by two fold dilution method; assay type: functional
Pseudomonas aeruginosa [2] = assay: Antibacterial activity against clinical isolates of Pseudomonas aeruginosa PAOA assessed as inhibition of pyocyanine secretion at 64 ug/ml; assay type: functional, organism-based
Pseudomonas aeruginosa [3] = assay: Antibacterial activity against clinical isolates of Pseudomonas aeruginosa PAOA assessed as inhibition of rhamnolipid secretion at 32 ug/ml; assay type: functional, organism-based
Pseudomonas aeruginosa [4] = assay: Antibiofilm activity against clinical isolates of Pseudomonas aeruginosa PAOA at 16 to 64 ug/ml incubated for 20 hrs by crystal violet staining based spectrophotometric analysis; assay type: functional, organism-based
Pseudomonas aeruginosa [5] = assay: Antibacterial activity against clinical isolates of Pseudomonas aeruginosa PAOA assessed as inhibition of rhamnolipid secretion at 64 ug/ml; assay type: functional, organism-based

SMILES | MIC (Pseudomonas aeruginosa [1]) | other results
C/C=C/CC[C@H]1Cc2cc(O[C@@H]3O[C@H](COC(C)=O)[C@@H](OC)[C@H](O)[C@H]3O)c(OC)c(O)c2C(=O)O1 | > 128 µg/mL | inhibition (Pseudomonas aeruginosa [2]): Active; inhibition (Pseudomonas aeruginosa [3]): Active; Activity (Pseudomonas aeruginosa [4]): Active; inhibition (Pseudomonas aeruginosa [5]): Active
C/C=C/CC[C@H]1Cc2cc(O[C@@H]3O[C@H](CO)[C@@H](OC)[C@H](O)[C@H]3O)c(OC)c(O)c2C(=O)O1 | > 128 µg/mL | 
C/C=C/CC[C@H]1Cc2cc(O[C@@H]3O[C@H](CO)[C@@H](OC)[C@H](O)[C@H]3O)cc(O)c2C(=O)O1 | > 128 µg/mL | 
C/C=C/C=C/[C@H]1Cc2cc(O[C@@H]3O[C@H](CO)[C@@H](OC)[C@H](O)[C@H]3O)cc(O)c2C(=O)O1 | > 128 µg/mL | 
C/C=C/CC[C@H]1Cc2cc(O)c(O[C@@H]3O[C@H](CO)[C@@H](OC)[C@H](O)[C@H]3O)c(O)c2C(=O)O1 | > 128 µg/mL | 

Continued, in another order:

MIC (Pseudomonas aeruginosa [1]) | SMILES | other results
> 128 µg/mL | C/C=C/C=C/[C@H]1Cc2cc(O[C@@H]3O[C@H](CO)[C@@H](OC)[C@H](O)[C@H]3O)c(OC)c(O)c2C(=O)O1 | 
> 128 µg/mL | C/C=C/CC[C@H]1Cc2c(O)c(O[C@@H]3O[C@H](CO)[C@@H](OC)[C@H](O)[C@H]3O)cc(O)c2C(=O)O1 | 
> 128 µg/mL | C/C=C/CCc1cc2cc(O[C@@H]3O[C@H](CO)[C@@H](OC)[C@H](O)[C@H]3O)c(OC)c(O)c2c(=O)o1 | 
128 µg/mL (≈ 504 µM) | O=C1C=C(Br)/C(=C/Br)O1 | inhibition (Pseudomonas aeruginosa [3]): Active; Activity (Pseudomonas aeruginosa [4]): Active
